Results from ChEMBL document CHEMBL1909046, “DrugMatrix in vitro pharmacology data”.

How the values were obtained:
[1] = molecular target: T1, C-C chemokine receptor type 4 (Homo sapiens, UniProt P51679); type: cell membranes, Membrane; conditions: chem-1; also: in other assays of this panel Not Active means under 50% inhibition at 10 µM
T1 sequence (P51679 whole entry): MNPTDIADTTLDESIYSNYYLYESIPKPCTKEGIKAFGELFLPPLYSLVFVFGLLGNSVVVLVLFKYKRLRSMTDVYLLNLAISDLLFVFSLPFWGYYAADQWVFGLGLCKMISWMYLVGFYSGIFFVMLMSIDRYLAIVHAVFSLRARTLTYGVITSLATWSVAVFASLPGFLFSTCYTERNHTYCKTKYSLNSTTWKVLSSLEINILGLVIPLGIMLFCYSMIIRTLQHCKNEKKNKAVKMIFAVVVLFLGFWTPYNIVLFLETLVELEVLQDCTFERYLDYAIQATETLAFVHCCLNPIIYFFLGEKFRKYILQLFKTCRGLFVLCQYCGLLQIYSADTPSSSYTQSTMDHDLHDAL

[2] = molecular target: Epidermal growth factor receptor (Homo sapiens, UniProt P00533); assay: DRUGMATRIX: Protein Tyrosine Kinase, EGF Receptor enzyme inhibition (substrate: Poly(Glu:Tyr)); type: cell-based, Insect cells; conditions: insect cells; Not Active = under 50% inhibition at 10 µM
[3] = DRUGMATRIX: Glutamate, AMPA radioligand binding (ligand: [3H] AMPA); type: cell membranes, Rattus norvegicus, Wistar, Cerebral cortex, Membrane; conditions: Not Active = under 50% inhibition at 10 µM
[4] = molecular target: T2, Thromboxane-A synthase (Homo sapiens, UniProt P24557); assay: biochemical; type: tissue-based, Platelet; conditions: platelet;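 also: enzyme inhibition assay with PGH2 supplied as substrate; in other assays of this panel Not Active means under 50% inhibition at 10 µM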
T2 sequence (P24557 whole entry): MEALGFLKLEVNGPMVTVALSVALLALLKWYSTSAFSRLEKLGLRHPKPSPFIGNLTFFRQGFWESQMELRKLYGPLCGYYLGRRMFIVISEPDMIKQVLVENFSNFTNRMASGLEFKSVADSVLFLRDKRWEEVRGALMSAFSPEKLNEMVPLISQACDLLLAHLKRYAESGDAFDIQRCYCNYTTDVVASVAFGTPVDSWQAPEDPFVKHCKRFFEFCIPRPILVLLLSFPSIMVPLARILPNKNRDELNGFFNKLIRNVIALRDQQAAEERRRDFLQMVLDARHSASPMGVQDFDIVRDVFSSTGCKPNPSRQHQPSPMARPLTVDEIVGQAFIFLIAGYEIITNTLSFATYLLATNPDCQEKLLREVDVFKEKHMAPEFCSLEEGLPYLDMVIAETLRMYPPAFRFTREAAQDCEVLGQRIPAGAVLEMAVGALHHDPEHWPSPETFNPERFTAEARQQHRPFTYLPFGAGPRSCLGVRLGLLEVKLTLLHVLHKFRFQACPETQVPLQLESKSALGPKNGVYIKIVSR

[5] = molecular target: 5-hydroxytryptamine receptor 6 (Homo sapiens, UniProt P50406); type: cell membranes, HeLa, Membrane; conditions: hela; also: in other assays of this panel Not Active means under 50% inhibition at 10 µM
[6] = molecular target: T3, C-X-C chemokine receptor type 2 (Homo sapiens, UniProt P25025); type: cell membranes, Membrane; conditions: cho-k1; also: in other assays of this panel Not Active means under 50% inhibition at 10 µM
T3 sequence (P25025 whole entry): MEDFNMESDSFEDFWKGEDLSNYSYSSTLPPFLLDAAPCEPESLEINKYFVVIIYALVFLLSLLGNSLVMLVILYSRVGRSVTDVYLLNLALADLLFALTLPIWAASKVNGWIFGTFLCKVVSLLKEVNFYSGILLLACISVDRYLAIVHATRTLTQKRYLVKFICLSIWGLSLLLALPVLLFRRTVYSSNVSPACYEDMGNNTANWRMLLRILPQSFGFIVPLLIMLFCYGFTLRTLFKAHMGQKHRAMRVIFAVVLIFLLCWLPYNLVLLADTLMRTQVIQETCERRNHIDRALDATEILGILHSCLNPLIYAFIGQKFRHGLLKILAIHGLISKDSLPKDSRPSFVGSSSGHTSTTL

[7] = molecular target: 5-hydroxytryptamine receptor 2B (Homo sapiens, UniProt P41595); type: cell membranes, CHO-K1, Membrane; conditions: cho-k1; also: in other assays of this panel Not Active means under 50% inhibition at 10 µM
[8] = molecular target: Insulin receptor (Rattus norvegicus, UniProt P15127); type: cell membranes, Wistar, Liver, Membrane; also: in other assays of this panel Not Active means under 50% inhibition at 10 µM
[9] = molecular target: Melanocortin receptor 4 (Homo sapiens, UniProt P32245); type: cell membranes, Membrane; conditions: hek293; also: in other assays of this panel Not Active means under 50% inhibition at 10 µM
[10] = molecular target: T4, Muscarinic acetylcholine receptor M2 (Homo sapiens, UniProt P08172); type: cell membranes, CHO-K1, Membrane; conditions: cho-k1; also: in other assays of this panel Not Active means under 50% inhibition at 10 µM
T4 sequence (P08172 whole entry): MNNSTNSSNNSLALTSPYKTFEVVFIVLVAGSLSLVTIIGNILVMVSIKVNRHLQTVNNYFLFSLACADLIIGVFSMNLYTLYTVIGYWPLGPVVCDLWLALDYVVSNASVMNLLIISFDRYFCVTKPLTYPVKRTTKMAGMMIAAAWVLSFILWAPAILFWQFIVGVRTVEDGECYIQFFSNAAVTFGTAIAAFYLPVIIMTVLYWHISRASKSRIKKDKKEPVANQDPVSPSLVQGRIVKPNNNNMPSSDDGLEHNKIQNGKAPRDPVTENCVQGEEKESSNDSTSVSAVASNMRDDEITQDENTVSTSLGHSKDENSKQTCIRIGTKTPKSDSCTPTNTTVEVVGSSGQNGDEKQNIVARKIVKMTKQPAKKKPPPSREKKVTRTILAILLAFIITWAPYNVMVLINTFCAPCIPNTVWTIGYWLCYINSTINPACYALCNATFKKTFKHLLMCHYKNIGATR

[11] = molecular target: Vasopressin V1a receptor (Homo sapiens, UniProt P37288); type: cell membranes, Membrane; conditions: hek293; also: in other assays of this panel Not Active means under 50% inhibition at 10 µM
[12] = molecular target: Cannabinoid receptor 1 (Homo sapiens, UniProt P21554); type: cell membranes, Membrane; conditions: chem-1; also: in other assays of this panel Not Active means under 50% inhibition at 10 µM
[13] = DRUGMATRIX: Nicotinic Acetylcholine radioligand binding (ligand: [125I] Epibatidine); type: cell membranes, Membrane; conditions: imr-32; Not Active = under 50% inhibition at 10 µM
[14] = molecular target: C-C chemokine receptor type 2 (Homo sapiens, UniProt P41597); type: cell membranes, CHO-K1, Membrane; conditions: cho-k1; also: in other assays of this panel Not Active means under 50% inhibition at 10 µM
[15] = molecular target: Tyrosine-protein kinase Lck (Homo sapiens, UniProt P06239); assay: DRUGMATRIX: Protein Tyrosine Kinase, LCK enzyme inhibition (substrate: Poly(Glu:Tyr)); type: cell-based, Insect cells; conditions: insect cells; Not Active = under 50% inhibition at 10 µM
[16] = molecular target: Protein phosphatase 3 catalytic subunit alpha (Homo sapiens, UniProt Q08209); parameters: species or system Escherichia coli
[17] = DRUGMATRIX: Glutamate, NMDA, Agonism radioligand binding (ligand: [3H] CGP-39653); type: cell membranes, Rattus norvegicus, Wistar, Cerebral cortex, Membrane; conditions: Not Active = under 50% inhibition at 10 µM
[18] = molecular target: Delta-type opioid receptor (Homo sapiens, UniProt P41143); type: cell membranes, HEK293, Membrane; conditions: hek293; also: in other assays of this panel Not Active means under 50% inhibition at 10 µM
[19] = molecular target: Acetylcholinesterase (Homo sapiens, UniProt P22303); assay: DRUGMATRIX: Acetylcholinesterase enzyme inhibition (substrate: acetylthiocholine); type: cell-based, HEK293; conditions: hek293; Not Active = under 50% inhibition at 10 µM
Sequence of Acetylcholinesterase (P22303 whole entry): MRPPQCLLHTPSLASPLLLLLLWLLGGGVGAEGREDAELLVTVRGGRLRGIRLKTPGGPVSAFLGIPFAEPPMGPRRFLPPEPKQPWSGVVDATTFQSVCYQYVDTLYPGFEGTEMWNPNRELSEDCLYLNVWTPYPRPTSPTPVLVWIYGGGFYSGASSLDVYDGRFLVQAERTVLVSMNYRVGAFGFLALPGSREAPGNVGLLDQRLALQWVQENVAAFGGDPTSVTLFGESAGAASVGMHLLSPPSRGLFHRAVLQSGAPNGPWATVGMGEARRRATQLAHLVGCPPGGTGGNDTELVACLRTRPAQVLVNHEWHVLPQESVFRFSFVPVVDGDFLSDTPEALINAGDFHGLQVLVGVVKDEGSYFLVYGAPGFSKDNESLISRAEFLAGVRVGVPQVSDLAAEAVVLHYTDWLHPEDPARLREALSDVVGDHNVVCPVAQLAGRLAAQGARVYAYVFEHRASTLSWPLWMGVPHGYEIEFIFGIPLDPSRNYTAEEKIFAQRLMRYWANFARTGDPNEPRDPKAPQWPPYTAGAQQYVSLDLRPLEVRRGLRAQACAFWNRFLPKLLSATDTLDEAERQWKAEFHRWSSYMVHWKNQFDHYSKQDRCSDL

Sequence of 5-hydroxytryptamine receptor 2B (P41595 whole entry): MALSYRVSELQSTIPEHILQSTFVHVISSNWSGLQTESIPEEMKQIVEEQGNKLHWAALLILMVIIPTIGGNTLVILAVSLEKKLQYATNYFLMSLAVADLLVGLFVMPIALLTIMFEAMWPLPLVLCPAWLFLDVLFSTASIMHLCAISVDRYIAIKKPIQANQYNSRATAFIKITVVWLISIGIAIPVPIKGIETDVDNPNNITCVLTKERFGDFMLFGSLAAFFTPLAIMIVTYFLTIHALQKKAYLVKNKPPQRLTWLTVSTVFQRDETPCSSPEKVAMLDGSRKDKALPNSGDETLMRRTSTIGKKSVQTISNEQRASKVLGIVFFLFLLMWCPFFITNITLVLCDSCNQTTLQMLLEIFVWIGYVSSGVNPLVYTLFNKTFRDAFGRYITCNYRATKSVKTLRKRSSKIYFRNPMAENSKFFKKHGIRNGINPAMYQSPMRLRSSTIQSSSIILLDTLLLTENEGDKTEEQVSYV
Sequence of 5-hydroxytryptamine receptor 6 (P50406 whole entry): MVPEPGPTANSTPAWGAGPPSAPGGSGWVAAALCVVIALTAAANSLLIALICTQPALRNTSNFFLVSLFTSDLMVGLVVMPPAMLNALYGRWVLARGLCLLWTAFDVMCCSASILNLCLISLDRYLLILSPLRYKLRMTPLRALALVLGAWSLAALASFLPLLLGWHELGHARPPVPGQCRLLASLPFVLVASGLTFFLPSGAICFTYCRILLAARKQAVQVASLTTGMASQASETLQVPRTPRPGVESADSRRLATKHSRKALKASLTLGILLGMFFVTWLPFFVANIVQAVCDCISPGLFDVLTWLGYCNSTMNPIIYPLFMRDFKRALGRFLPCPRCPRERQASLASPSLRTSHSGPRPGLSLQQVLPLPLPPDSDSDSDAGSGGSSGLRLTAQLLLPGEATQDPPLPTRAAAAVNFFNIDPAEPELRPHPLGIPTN
Sequence of C-C chemokine receptor type 2 (P41597 whole entry): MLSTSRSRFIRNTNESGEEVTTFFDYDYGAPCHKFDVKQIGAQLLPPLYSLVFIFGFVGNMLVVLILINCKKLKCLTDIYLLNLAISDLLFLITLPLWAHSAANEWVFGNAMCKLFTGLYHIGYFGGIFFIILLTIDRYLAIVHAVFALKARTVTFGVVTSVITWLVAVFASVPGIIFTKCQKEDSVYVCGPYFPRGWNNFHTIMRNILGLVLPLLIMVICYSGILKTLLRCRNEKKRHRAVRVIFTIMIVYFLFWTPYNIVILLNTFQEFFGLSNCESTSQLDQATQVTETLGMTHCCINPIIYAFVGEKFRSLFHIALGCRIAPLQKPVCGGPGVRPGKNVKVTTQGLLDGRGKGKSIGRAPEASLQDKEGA
Sequence of Melanocortin receptor 4 (P32245 whole entry): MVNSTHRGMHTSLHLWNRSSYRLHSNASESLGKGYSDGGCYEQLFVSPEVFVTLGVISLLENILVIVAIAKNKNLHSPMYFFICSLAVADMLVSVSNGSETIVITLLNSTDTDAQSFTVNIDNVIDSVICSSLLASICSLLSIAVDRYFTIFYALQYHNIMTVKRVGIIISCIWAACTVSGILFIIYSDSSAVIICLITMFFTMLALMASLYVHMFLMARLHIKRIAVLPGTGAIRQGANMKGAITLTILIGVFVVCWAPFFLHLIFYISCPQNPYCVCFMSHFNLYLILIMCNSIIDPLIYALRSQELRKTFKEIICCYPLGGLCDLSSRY
Sequence of Tyrosine-protein kinase Lck (P06239 whole entry): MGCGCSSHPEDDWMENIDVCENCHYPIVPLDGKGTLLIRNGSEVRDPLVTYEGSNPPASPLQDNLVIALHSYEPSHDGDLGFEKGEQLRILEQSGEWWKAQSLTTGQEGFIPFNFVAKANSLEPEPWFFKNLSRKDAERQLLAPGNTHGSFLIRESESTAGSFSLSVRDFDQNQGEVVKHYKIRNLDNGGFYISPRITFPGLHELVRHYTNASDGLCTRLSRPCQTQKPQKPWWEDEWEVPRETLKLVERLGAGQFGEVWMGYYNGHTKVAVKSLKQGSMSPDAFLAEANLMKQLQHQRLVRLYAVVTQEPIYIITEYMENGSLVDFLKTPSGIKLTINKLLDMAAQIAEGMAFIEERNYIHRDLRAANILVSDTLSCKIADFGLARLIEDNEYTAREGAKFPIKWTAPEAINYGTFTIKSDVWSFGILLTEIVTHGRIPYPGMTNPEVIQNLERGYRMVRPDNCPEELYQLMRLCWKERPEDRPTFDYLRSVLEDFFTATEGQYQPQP
Sequence of Delta-type opioid receptor (P41143 whole entry): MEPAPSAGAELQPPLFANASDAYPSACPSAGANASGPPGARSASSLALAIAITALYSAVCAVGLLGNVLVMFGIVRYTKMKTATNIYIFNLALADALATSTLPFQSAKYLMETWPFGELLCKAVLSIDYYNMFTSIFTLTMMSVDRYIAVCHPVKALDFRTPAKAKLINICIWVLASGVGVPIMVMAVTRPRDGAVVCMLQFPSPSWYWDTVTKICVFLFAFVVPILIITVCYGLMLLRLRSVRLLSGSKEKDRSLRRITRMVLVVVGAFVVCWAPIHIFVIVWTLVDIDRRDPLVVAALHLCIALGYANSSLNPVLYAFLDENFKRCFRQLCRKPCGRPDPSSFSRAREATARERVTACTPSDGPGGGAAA
Sequence of Vasopressin V1a receptor (P37288 whole entry): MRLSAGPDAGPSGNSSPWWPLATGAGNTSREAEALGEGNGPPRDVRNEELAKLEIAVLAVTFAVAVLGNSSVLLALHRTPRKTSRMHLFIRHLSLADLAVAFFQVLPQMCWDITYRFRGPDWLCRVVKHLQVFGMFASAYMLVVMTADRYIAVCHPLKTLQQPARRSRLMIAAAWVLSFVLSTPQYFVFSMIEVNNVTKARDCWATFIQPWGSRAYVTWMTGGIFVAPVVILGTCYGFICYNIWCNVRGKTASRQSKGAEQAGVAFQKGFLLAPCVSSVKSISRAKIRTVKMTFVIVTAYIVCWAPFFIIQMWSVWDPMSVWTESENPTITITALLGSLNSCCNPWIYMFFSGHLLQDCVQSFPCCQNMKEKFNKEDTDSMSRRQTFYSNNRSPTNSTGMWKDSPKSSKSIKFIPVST
Sequence of Insulin receptor (P15127 27-759 limits assumed): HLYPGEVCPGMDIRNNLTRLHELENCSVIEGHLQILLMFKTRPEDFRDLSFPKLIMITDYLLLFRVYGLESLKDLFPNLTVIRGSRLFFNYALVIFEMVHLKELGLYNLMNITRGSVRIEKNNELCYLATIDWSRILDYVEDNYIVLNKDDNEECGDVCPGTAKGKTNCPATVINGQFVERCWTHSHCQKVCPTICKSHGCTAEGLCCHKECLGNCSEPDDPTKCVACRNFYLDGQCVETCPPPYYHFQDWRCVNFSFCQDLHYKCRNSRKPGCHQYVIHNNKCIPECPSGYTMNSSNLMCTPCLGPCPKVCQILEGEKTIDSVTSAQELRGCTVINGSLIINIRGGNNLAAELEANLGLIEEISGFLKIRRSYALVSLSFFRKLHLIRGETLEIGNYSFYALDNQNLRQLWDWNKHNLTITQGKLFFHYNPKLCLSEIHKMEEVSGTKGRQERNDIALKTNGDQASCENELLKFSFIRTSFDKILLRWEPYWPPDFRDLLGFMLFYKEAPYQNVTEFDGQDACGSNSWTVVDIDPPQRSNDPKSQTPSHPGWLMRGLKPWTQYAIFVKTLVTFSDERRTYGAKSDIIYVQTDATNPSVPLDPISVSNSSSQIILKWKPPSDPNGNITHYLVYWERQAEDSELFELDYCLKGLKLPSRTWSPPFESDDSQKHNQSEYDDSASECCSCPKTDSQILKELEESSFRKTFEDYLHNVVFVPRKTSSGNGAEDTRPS
Sequence of Insulin receptor (P15127 764-1383 limits assumed): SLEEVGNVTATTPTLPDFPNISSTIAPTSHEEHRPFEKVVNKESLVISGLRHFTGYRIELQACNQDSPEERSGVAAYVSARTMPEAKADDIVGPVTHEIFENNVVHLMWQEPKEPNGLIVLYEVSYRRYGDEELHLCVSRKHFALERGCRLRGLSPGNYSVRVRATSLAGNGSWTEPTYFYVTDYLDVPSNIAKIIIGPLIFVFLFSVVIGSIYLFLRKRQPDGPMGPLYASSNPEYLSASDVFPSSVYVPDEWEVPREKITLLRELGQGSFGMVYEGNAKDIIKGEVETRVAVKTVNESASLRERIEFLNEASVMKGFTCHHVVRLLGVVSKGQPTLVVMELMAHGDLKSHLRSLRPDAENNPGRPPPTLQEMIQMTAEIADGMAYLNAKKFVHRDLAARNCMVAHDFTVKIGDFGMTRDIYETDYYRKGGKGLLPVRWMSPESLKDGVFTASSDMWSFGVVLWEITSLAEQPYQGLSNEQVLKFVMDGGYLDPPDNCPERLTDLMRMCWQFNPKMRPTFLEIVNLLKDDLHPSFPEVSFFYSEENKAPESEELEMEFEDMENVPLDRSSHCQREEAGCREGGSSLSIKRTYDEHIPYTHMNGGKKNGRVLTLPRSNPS

CN1[C@@H]2CC[C@H]1C[C@@H](OC(=O)c1c[nH]c3ccccc13)C2 [TROPISETRON]
Not Active: IC50 [1] | IC50 [2] | IC50 [3] | Ki [3] | IC50 [4] | IC50 [5] | IC50 [6] | IC50 [7] | IC50 [8] | IC50 [9] | IC50 [10] | IC50 [11] | IC50 [12] | IC50 [13] | Ki [13] | IC50 [14] | IC50 [15] | IC50 [16] | IC50 [17] | Ki [17] | IC50 [18] | IC50 [19]

COc1cc(C(=O)NC2CCCNC2)cc(OC)c1OC (stereo not drawn) [TROXIPIDE]
Not Active: IC50 [1] | IC50 [2] | IC50 [3] | Ki [3] | IC50 [4] | IC50 [5] | IC50 [6] | IC50 [7] | IC50 [8] | IC50 [9] | IC50 [10] | IC50 [11] | IC50 [12] | IC50 [13] | Ki [13] | IC50 [14] | IC50 [15] | IC50 [16] | IC50 [17] | Ki [17] | IC50 [18] | IC50 [19]

CC(C)[C@H](N)C(=O)OCCOCn1cnc2c(=O)nc(N)[nH]c21 [VALACYCLOVIR]
Not Active: IC50 [1] | IC50 [2] | IC50 [3] | Ki [3] | IC50 [4] | IC50 [5] | IC50 [6] | IC50 [7] | IC50 [8] | IC50 [9] | IC50 [10] | IC50 [11] | IC50 [12] | IC50 [13] | Ki [13] | IC50 [14] | IC50 [15] | IC50 [16] | IC50 [17] | Ki [17] | IC50 [18] | IC50 [19]

CN[C@H](CC(C)C)C(=O)N[C@H]1C(=O)N[C@@H](CC(N)=O)C(=O)N[C@H]2C(=O)N[C@H]3C(=O)N[C@H](C(=O)N[C@H](C(=O)O)c4cc(O)cc(O)c4-c4cc3ccc4O)[C@H](O)c3ccc(c(Cl)c3)Oc3cc2cc(c3O[C@@H]2O[C@H](CO)[C@@H](O)[C@H](O)[C@H]2O[C@H]2C[C@](C)(N)[C@H](O)[C@H](C)O2)Oc2ccc(cc2Cl)[C@H]1O [VANCOMYCIN]
Not Active: IC50 [1] | IC50 [2] | IC50 [3] | Ki [3] | IC50 [4] | IC50 [5] | IC50 [6] | IC50 [7] | IC50 [8] | IC50 [9] | IC50 [10] | IC50 [11] | IC50 [12] | IC50 [13] | Ki [13] | IC50 [14] | IC50 [15] | IC50 [16] | IC50 [17] | Ki [17] | IC50 [18] | IC50 [19]

COc1ccc(C(CN(C)C)C2(O)CCCCC2)cc1 (stereo not drawn) [VENLAFAXINE]
Not Active: IC50 [1] | IC50 [2] | IC50 [3] | Ki [3] | IC50 [4] | IC50 [5] | IC50 [6] | IC50 [7] | IC50 [8] | IC50 [9] | IC50 [10] | IC50 [11] | IC50 [12] | IC50 [13] | Ki [13] | IC50 [14] | IC50 [15] | IC50 [16] | IC50 [17] | Ki [17] | IC50 [18] | IC50 [19]

IVERMECTIN
Not Active: IC50 [1] | Ki [1] | IC50 [2] | Ki [2] | IC50 [3] | Ki [3] | IC50 [4] | Ki [4] | IC50 [5] | Ki [5] | IC50 [6] | Ki [6] | IC50 [7] | Ki [7] | IC50 [8] | Ki [8] | IC50 [9] | Ki [9] | IC50 [10] | Ki [10] | IC50 [11] | Ki [11] | IC50 [12] | Ki [12] | IC50 [13] | Ki [13] | IC50 [14] | Ki [14] | IC50 [15] | Ki [15] | IC50 [16] | Ki [16] | IC50 [17] | Ki [17] | IC50 [18] | Ki [18] | IC50 [19] | Ki [19]
